Consider one molecule from patent US20150141439A1, “PHARMACEUTICAL COMPOSITION FOR THE PREVENTION OR TREATMENT OF BRAIN TUMOR OR TEMODAL RESISTANT GLIOBLASTOMA MULTIFORM COMPRISING AZATHIOPRINE AS AN ACTIVE INGREDIENT” (KOREA RESEARCH INSTITUTE OF CHEMICAL TECHNOLOGY, priority 2012, published 2015).

In experiment [1] the test system is GBM #3 glioblastoma multiform patient originated cells. The experiment can be described thus: Neurosphere formation inhibition, GBM #3. In kind it is cell-based, human. Also noted: key: S: strong effect; I: intermediate effect; R: rare effect. The settings on record: GBM #3, type A (proneural), Azathioprine 1 μM, duration 21 day. Here is the method:
(§1) Particularly, to investigate neurosphere formation, glioblastoma multiform cells were cultured for a certain time and the cells were distributed again in culture vessels, followed by additional culture. Then, the number of newly generated neurospheres was measured. First, the glioblastoma multiform patient originated cells were sub-cultured, which were distributed in a 96-well plate (20, 50, and 200 cells in 50 μl of culture medium/well). […] Then, the compound of formula 1 (azathioprine) and the compound of Comparative Example 1 (Temodal) were added to 50 μl of cell culture medium with the same concentrations as the above once a week, which were then cultured for 7˜23 days. When neurosphere was formed at least 50 μm in the control group not treated with the compound, the number of neurospheres in each well was counted to compare the neurosphere formation before and after the treatment of the compound of formula 1 (azathioprine) and the compound of Comparative Example 1 (Temodal).
(§2) The glioblastoma multiform cells used in this experiment were classified into 4 types, which are type A, type B, type C, and type D, according to the gene expression pattern. Methylation of MGMT (O6-me-G methyltransferase), the DNA repair protein, was confirmed in each cell line. […]

Experiment [2] concerns GBM #10 glioblastoma multiform patient originated cells. As to the kind of experiment: Neurosphere formation inhibition, GBM #10. The format is cell-based, human. Also noted: key: S: strong effect; I: intermediate effect; R: rare effect. The settings on record: GBM #10, type D (non-classified), Azathioprine 1 μM, duration 10 day. Here is the method:
as §1, §2

Experiment [3] has as its system glioblastoma multiform cells transplanted in the brain of a mouse. The experiment can be described thus: Glioblastoma multiform orthotopic animal model, survival. In kind it is in vivo. Here is the method:
Following experiment was performed to investigate the radiosensitizing effect and chemosensitizing effect of the compound of formula 1 (azathioprine) in the glioblastoma multiform orthotopic animal model.
Particularly, to investigate the resistance against Temodal or radiotherapy in glioblastoma multiform, glioblastoma multiform cells were cultured. The cultured cells (2×10^5/5 μl) were transplanted in the brain of a mouse. 17 days later, the administration of Temodal (65 mg/kg, oral-administration) or radiotherapy (2 Gy) began, which continued for 5 days. The average survival period was investigated. […] For the comparison, the survival period of the group treated with “Avastin”, the well-known anticancer agent, is also presented.
Glioblastoma multiform, glioblastoma multiform cells were cultured. The cultured cells (2×10^5/5 μl) were transplanted in the brain of a mouse. 17 days later, the administration of Temodal (65 mg/kg, oral-administration) or radiotherapy (2 Gy) began, which continued for 5 days. Unlike the above experiment, the compound of formula 1 of the present invention (azathioprine) was co-treated to the mouse by oral-administration at the dose of 20 mg/kg every day after 11 days from the glioblastoma multiform transplantation in the mouse brain. Then, the average survival period was investigated.

Experiment [4] relates to GBM #2 glioblastoma multiform patient originated cells. As to the kind of experiment: Neurosphere formation inhibition, GBM #2. The format is cell-based, human. Also noted: key: S: strong effect; I: intermediate effect; R: rare effect. The settings on record: GBM #2, type A (proneural), Azathioprine 1 μM, duration 15 day. Here is the method: as §1, §2
In experiment [5] the test system is glioblastoma multiform cell line (U87MG). The experiment can be described thus: cells. Here is the method:
(§3) Particularly, the cell growth inhibition effect was measured by WST-1 cell proliferation assay [http://www.roche-applied-science.com/PROD_INF/MANUALS/CELL_MAN/apoptosis—087—088.pdf]. The compound of formula 1 was loaded in a 384-well cell culture plate. Three types of glioblastoma multiform cell lines [proneural subtype (559T), mesenchymal subtype (592T), and classical subtype (626T)], normal human astrocytes (NHA), a lung cancer cell line (A549), and a glioblastoma multiform cell line (U87MG) were distributed in the plate at the density of 4.5×10^3 cells/well, and the medium was filled up to make 50 μl per well. At this time, the concentration of the solvent DMSO for the compound of formula 1 was no more than 0.2%. After culturing the cells for 72 hours, 5 mg/ml of WST-1 reagent was added by 5 μl per well, followed by reaction for 3˜4 hours. Then OD450 was measured to investigate the effect of the compound of formula 1 on cell proliferation.

Experiment [6] relates to U2932 Human DLBCL (Diffuse large B-cell lymphoma). The experiment can be described thus: Secondary cytotoxicity test, U2932. In kind it is cell-based. Here is the method: as §3
(§4) To investigate the cell growth inhibition effect of the compound of formula 1 of the present invention (azathioprine) in many different cell lines, secondary cytotoxicity test was performed with the cell lines listed in Table 5 by the same manner as described in Example 1.

Experiment [7] relates to Hela Human adenocarcinoma. As to the kind of experiment: Secondary cytotoxicity test, Hela. The format is cell-based. Here is the method: as §3, §4
The subject of experiment [8] is GBM #8 glioblastoma multiform patient originated cells. The experiment can be described thus: Neurosphere formation inhibition, GBM #8. The settings on record: GBM #8, type C (mesenchymal), Azathioprine 1 μM, duration 15 day. In kind it is cell-based, human. Also noted: key: S: strong effect; I: intermediate effect; R: rare effect. Here is the method: Particularly, to investigate neurosphere formation, glioblastoma multiform cells were cultured for a certain time and the cells were distributed again in culture vessels, followed by additional culture. Then, the number of newly generated neurospheres was measured. First, the glioblastoma multiform patient originated cells were sub-cultured, which were distributed in a 96-well plate (20, 50, and 200 cells in 50 μl of culture medium/well). 2, 6, and 20 μM of the compound of formula 1 (azathioprine) and the compound of Comparative Example 1 (Temodal) were treated thereto by 50 μl per well to make the final concentrations of 1, 3, and 10 μM. Then, the compound of formula 1 (azathioprine) and the compound of Comparative Example 1 (Temodal) were added to 50 μl of cell culture medium with the same concentrations as the above once a week, which were then cultured for 7˜23 days. When neurosphere was formed at least 50 μm in the control group not treated with the compound, the number of neurospheres in each well was counted to compare the neurosphere formation before and after the treatment of the compound of formula 1 (azathioprine) and the compound of Comparative Example 1 (Temodal).
The glioblastoma multiform cells used in this experiment were classified into 4 types, which are type A, type B, type C, and type D, according to the gene expression pattern. […]

The subject of experiment [9] is GBM #4 glioblastoma multiform patient originated cells. The experiment can be described thus: Neurosphere formation inhibition, GBM #4. In kind it is cell-based, human. Also noted: key: S: strong effect; I: intermediate effect; R: rare effect. The settings on record: GBM #4, type B (classical), Azathioprine 1 μM, duration 9 day. Here is the method:
as §1, §2

The subject of experiment [10] is HCT-116 Human colorectal carcinoma. The experiment can be described thus: Secondary cytotoxicity test, HCT-116. The format is cell-based. Here is the method:
as §3, §4

Where [11] appears, read: Homo sapiens, U-87 MG, 72 h, read-out: Cell Growth Inhibition (% Inhibition).

Turning to `Cn1cnc([N+](=O)[O-])c1Sc1ncnc2nc[nH]c12` [Azathioprine, 6-(1-methyl-4-nitro-1H-imidazol-5-ylthio)-7H-purine], the “inhibition of neurosphere formation” value in experiment [1], in experiment [2], in experiment [4], in experiment [8] and in experiment [9] was “S” each time. In experiment [3] (radiotherapy (2 Gy) 5 days from day 17 + azathioprine 20 mg/kg oral every day after day 11, control 28 days), the “Average Survival Period” value stood at 41 days. Besides, in experiment [3] (radiotherapy (2 Gy) 5 days from day 17 + azathioprine 20 mg/kg oral every day after day 11, vs. control), the “Survival Period Extension Rate (%)” value stood at 44%. In experiment [5] (Homo sapiens, U-87 MG, 72 h), this molecule returned a GI50 above 10 µM. For the same molecule, the inhibition at 0.032 µM in [5] (setting [11]) was 3.2%. The inhibition at 0.1 µM in experiment [5] (setting [11]) was -9.9%. In addition, in experiment [5] (setting [11]), the inhibition at 0.32 µM amounted to 10.5%. Besides, the inhibition at 1 µM in [5] (setting [11]) was determined as 6.5%. Moreover, in [5] (setting [11]), the inhibition at 3.2 µM is 3.2%. Moreover, in experiment [5] (setting [11]), the inhibition at 10 µM was -12.7%. In addition, in [5] (U87MG, WST-1, up to 10 μM), the “cancer cell growth inhibition” value is given as “did not inhibit the cancer cell growth”. The IC50 in experiment [6] stood at 4.2 µM; in experiment [7], 2.9 µM; in experiment [10], 5.5 µM.
